Data from ChEMBL document CHEMBL1133864, “Identification of a novel family of nucleosides that specifically inhibit HIV-1 reverse transcriptase” (Bioorg Med Chem Lett, 2001).

Key:
[1] = tested on: Human immunodeficiency virus 2; test: Effective concentration required to inhibit HIV-2 induced cytopathicity by 50% in CEM cells; type: functional, organism-based; conditions: Human immunodeficiency virus 2, CCRF-CEM
CCRF-CEM = test: Concentration required to reduce the viability of mock-infected CEM cells by 50%; type: functional; conditions: Homo sapiens
[2] = biological target: T1, Human immunodeficiency virus type 1 reverse transcriptase (Human immunodeficiency virus 1, UniProt Q72547); test: The compound was evaluated for inhibition of HIV-1 wild types […]-Lys recombinant reverse transcriptase
[3] = biological target: T1, Human immunodeficiency virus type 1 reverse transcriptase; test: The compound was evaluated for inhibition of HIV-1 mutant […]-Lys recombinant reverse transcriptase

SMILES: Cc1cn(C2CCC(CO[Si](C)(C)C(C)(C)C)O2)c(=O)n(CC(=O)O)c1=O (stereo not drawn)
- EC50 [1]: > 250 µM
- CC50 (CCRF-CEM): > 250 µM

SMILES: Cc1cn(C2O[C@H](CO)[C@@H](O)[C@H]2O)c(=O)n(CC(=O)O)c1=O (stereo partly drawn)
- EC50 [1]: > 250 µM
- CC50 (CCRF-CEM): > 250 µM

SMILES: Cc1cn([C@@H]2O[C@H](CO)[C@@H](O)[C@H]2O[Si](C)(C)C(C)(C)C)c(=O)n(CC(=O)O)c1=O
- EC50 [1]: > 250 µM
- CC50 (CCRF-CEM): > 250 µM

SMILES: Cc1cn([C@@H]2O[C@H](CO[Si](C)(C)C(C)(C)C)[C@@H](O[Si](C)(C)C(C)(C)C)[C@H]2O[Si](C)(C)C(C)(C)C)c(=O)n(CC(=O)OCc2ccccc2)c1=O
- EC50 [1]: > 50 µM
- CC50 (CCRF-CEM): 102 µM

SMILES: Cc1cn([C@@H]2O[C@H](CO[Si](C)(C)C(C)(C)C)[C@@H](O)[C@H]2O[Si](C)(C)C(C)(C)C)c(=O)n(CC(=O)OCc2ccccc2)c1=O
- EC50 [1]: > 10 µM
- CC50 (CCRF-CEM): 25.7 µM

SMILES: Cc1cn(C2O[C@H](CO[Si](C)(C)C(C)(C)C)[C@@H](O)[C@H]2O)c(=O)n(CC(=O)O)c1=O (stereo partly drawn)
- EC50 [1]: > 250 µM
- CC50 (CCRF-CEM): > 250 µM

SMILES: Cc1cn([C@H]2C[C@H](N=[N+]=[N-])[C@@H](CO)O2)c(=O)[nH]c1=O [ZIDOVUDINE]
- EC50 [1]: 0.004 µM
- CC50 (CCRF-CEM): 6 µM

SMILES: Cc1cn([C@@H]2O[C@H](CO[Si](C)(C)C(C)(C)C)[C@@H](O[Si](C)(C)C(C)(C)C)[C@H]2O)c(=O)n(CC(=O)OCc2ccccc2)c1=O
- EC50 [1]: > 10 µM
- CC50 (CCRF-CEM): 57.1 µM

SMILES: Cc1cn([C@H]2C[C@H](O[Si](C)(C)C(C)(C)C)[C@@H](CO[Si](C)(C)C(C)(C)C)O2)c(=O)n(CC(=O)O)c1=O
- EC50 [1]: > 10 µM
- CC50 (CCRF-CEM): 20.3 µM

SMILES: Cc1cn(C2O[C@H](CO[Si](C)(C)C(C)(C)C)[C@@H](O)[C@H]2O)c(=O)n(CC(=O)OCc2ccccc2)c1=O (stereo partly drawn)
- EC50 [1]: > 10 µM
- CC50 (CCRF-CEM): 30 µM

SMILES: Cc1cn([C@H]2C[C@H](O[Si](C)(C)C(C)(C)C)[C@@H](CO[Si](C)(C)C(C)(C)C)O2)c(=O)n(CC(=O)OCc2ccccc2)c1=O
- EC50 [1]: > 10 µM
- CC50 (CCRF-CEM): 56.4 µM

SMILES: Cc1cn(C2CCC(CO[Si](C)(C)C(C)(C)C)O2)c(=O)n(CC(=O)OCc2ccccc2)c1=O (stereo not drawn)
- EC50 [1]: > 50 µM
- CC50 (CCRF-CEM): > 250 µM

SMILES: Cc1cn([C@@H]2O[C@H](CO[Si](C)(C)C(C)(C)C)C3(OS(=O)(=O)C=C3N)[C@H]2O[Si](C)(C)C(C)(C)C)c(=O)[nH]c1=O (stereo partly drawn)
- IC50 [2]: 3.6 µM
- IC50 [3]: > 500 µM
- EC50 [1]: > 20 µM
- CC50 (CCRF-CEM): 14 µM

SMILES: Cc1cn(C2O[C@H](CO)[C@@H](O)[C@H]2O)c(=O)n(CC(=O)OCc2ccccc2)c1=O (stereo partly drawn)
- EC50 [1]: > 250 µM
- CC50 (CCRF-CEM): > 250 µM

SMILES: Cc1cn(C2OC(CO[Si](C)(C)C(C)(C)C)CC2O[Si](C)(C)C(C)(C)C)c(=O)n(CC(=O)OCc2ccccc2)c1=O (stereo not drawn)
- EC50 [1]: > 2 µM
- CC50 (CCRF-CEM): 21.6 µM

SMILES: Cc1cn([C@@H]2O[C@H](CO[Si](C)(C)C(C)(C)C)[C@@H](O[Si](C)(C)C(C)(C)C)[C@H]2O)c(=O)n(CC(=O)O)c1=O
- IC50 [2]: 207 µM
- IC50 [3]: 335 µM
- EC50 [1]: > 10 µM
- CC50 (CCRF-CEM): 29.3 µM

SMILES: Cc1cn(C2OC(CO[Si](C)(C)C(C)(C)C)CC2O[Si](C)(C)C(C)(C)C)c(=O)n(CC(=O)O)c1=O (stereo not drawn)
- IC50 [2]: 33.8 µM
- IC50 [3]: 47.4 µM
- EC50 [1]: > 10 µM
- CC50 (CCRF-CEM): 20.7 µM

SMILES: Cc1cn([C@@H]2O[C@H](CO[Si](C)(C)C(C)(C)C)[C@@H](O[Si](C)(C)C(C)(C)C)[C@H]2O[Si](C)(C)C(C)(C)C)c(=O)n(CC(=O)O)c1=O
- EC50 [1]: > 125 µM
- CC50 (CCRF-CEM): > 125 µM

SMILES: Cc1cn([C@@H]2O[C@H](CO)[C@@H](O)[C@H]2O[Si](C)(C)C(C)(C)C)c(=O)n(CC(=O)OCc2ccccc2)c1=O
- EC50 [1]: > 10 µM
- CC50 (CCRF-CEM): 26 µM

SMILES: Cc1cn([C@@H]2O[C@H](CO[Si](C)(C)C(C)(C)C)[C@@H](O)[C@H]2O[Si](C)(C)C(C)(C)C)c(=O)n(CC(=O)O)c1=O
- IC50 [2]: 138 µM
- IC50 [3]: 158 µM
- EC50 [1]: > 10 µM
- CC50 (CCRF-CEM): 23 µM
